Several values for one entry are separate records, joined by “and”; a condition that tells them apart may be missing. Equal entries are not always repeated. Entries after “also recorded” stand apart in the source; their conditions may differ. Structures can show the parent of a compound that is named as a salt.
Legend:
[1] = Equilibrium aqueous solubility from solid; assay type: physicochemical; conditions: H20, room temperature overnight
Method: Samples of the ocinaplon salts shown above were evaluated for equilibrium aqueous solubility from solid. Duplicate samples of ocinaplon were accurately weighed and diluted to 1 ml with water to 6.83 mg/ml and 6.43 mg/ml. Duplicate samples of Ocinaplon di HCl salt were accurately weighed and diluted to 1 ml with water to 5.5 mg/ml and 6.0 mg/ml. Ocinaplon di HBr salt was accurately weighed and diluted to 1 ml with water to 6.1 mg/ml and 5.8 mg/ml. Ocinaplon disulfate salt was accurately weighed and diluted to 1 ml with water to 7.5 mg/ml and 6.5 mg/ml. Any change in pH of the water following sample addition was recorded. After equilibration at room temperature overnight the solutions were filtered and solute concentration determined by fast gradient HPLC with UV/VIS/MS detection with reference to 5, 10, 50, 100 and 250 μM analytical standards. Prior to sample filtration, filters were primed with 600 μl of sample to resolve potential adsorption problems. Both sample replicates were collected through the primed filter. Duplicate determinations were made in all cases.

[2] = Pharmacokinetics of different salt forms of ocinaplon after a single oral dose; assay type: in vivo; conditions: male beagle dogs; for Tmax / half-life / AUC(0-inf) / AUC(0-t) / Cmax: dog, plasma; for AUC(0-inf) / AUC(0-t) / Cmax: male, beagle, po
Method: The test compounds were prepared in 0.5% methylcellulose. The target concentrations of the free base and HBr salt were 1.0 and 1.34 mg/mL (equivalent to 1 mg of the free base), respectively. The liquid suspensions were administered via oral gavage. Prior to removing the gavage tube, the tube was flushed with approximately 5 mL of water.
Blood (approximately 2 mL) was collected from a jugular vein via syringe and needle and transferred into tubes containing K2EDTA anticoagulant predose and at 0.5, 1, 2, 3, 4, 6, 8, 12, and 24 hours postdose. Blood was maintained on wet ice, in chilled Kryoracks, or at approximately 5° C. prior to centrifugation to obtain plasma. Centrifugation began within 1 hour of collection. Plasma was placed on dry ice prior to storage at approximately −70° C. Plasma samples, remaining test compounds, and remaining dose formulations were shipped on dry ice to the analysis site and stored at approximately −70° C. before and after analysis. Samples were analyzed using an LC/MS/MS method. Plasma concentration-time data for each dog and formulation were analyzed using a noncompartmental model assumption with WinNonlin, version 4.1 (Pharsight Corporation, Mountain View, Calif.). All calculations were based on the nominal times as actual sample collection times departed minimally from the schedule times.
The pharmacokinetic parameters of different pyrazolopyrimidine acid salts vary in an apparently salt and compound dependent fashion. This is illustrated by a comparison of the pharmacokinetic properties of different acid salts of the pyrazolopyrimidine, ocinaplon. This study was performed in a manner similar to the study described in Example 9 hereinabove. The concentrations of the HCl, HBr and disulfate salts of ocinaplon were 3.72 mg/mL, 4.61 mg/mL and 4.95 mg/mL, respectively. All concentrations were calculated to be 3.0 mg free base/mL; the dose volume was […]. […] […] These findings exemplify and underscore the differences in pharmacokinetic profiles among these three exemplary salts of ocinaplon.

[3] = 30 mg/kg, single oral dose 30 mg Base/kg, 0.5% methylcellulose suspension, mean (CV %), N = 5
[4] = single oral dose 50 mg/kg, 0.5% MC, mean (CV %)
[5] = 30 mg/kg, apparently scaled from 50 mg/kg, 0.5% MC
[6] = 50 mg/kg, single oral dose 50 mg/kg, 0.5% MC, mean (CV %)

O=C(c1ccccn1)c1cnn2c(-c3ccncc3)ccnc12 [Ocinaplon disulfate salt]
Equilibrium Aqueous Solubility from Solid [1]: 10.6 mM and 5.3 mg/ml
Tmax [2, 3]: 48 min
half-life [2, 3]: 57 min
Cmax of ocinaplon relative to an equivalent amount of the free base ([2]; oral 30 mg free base/kg): more than two-fold
AUC(0-inf) [2, 3]: 46400 ng·h/mL
AUC(0-t) [2, 3]: 46300 ng·h/mL
Cmax [2, 3]: 14800 ng/mL

Br.Br.O=C(c1ccccn1)c1cnn2c(-c3ccncc3)ccnc12 [Ocinaplon di HBr]
solubility ([1]; water, thermodynamic from solid): 11500 µM and 5300 µg/mL
Tmax [2, 3]: 54 min
half-life [2, 3]: 49.8 min
AUC of ocinaplon relative to an equivalent amount of the free base ([2]; oral 30 mg free base/kg): did not differ
Cmax of ocinaplon relative to an equivalent amount of the free base ([2]; oral 30 mg free base/kg): more than two-fold; also recorded: approximately twice
variability in plasma levels of ocinaplon compared to the free base ([2]; oral 30 mg free base/kg): lower variability
variability in the AUC (CV %) compared to the free base ([2]; oral 30 mg free base/kg): dramatically less
AUC(0-t) ([2]; 30 mg Base/kg, single oral dose 30 mg Base/kg, 0.5% methylcellulose suspension, mean (CV %), N = 5): 38000 ng·h/mL
AUC(0-inf) [2, 3]: 38100 ng·h/mL
Cmax [2, 3]: 13600 ng/mL

O=C(c1ccccn1)c1cnn2c(-c3ccncc3)ccnc12 [Ocinaplon Free base, pyridin-2-yl(7-(pyridin-4-yl)pyrazolo[1,5-a]pyrimidin-3-yl)methanone, reference compound]
Equilibrium Aqueous Solubility from Solid [1]: 0.4 mM and 0.1 mg/ml
Tmax [2, 4]: 108 min
half-life [2, 4]: 96.6 min
AUC(0-inf) [2, 5]: 37900 ng·h/mL
AUC(0-t) [2, 5]: 37600 ng·h/mL
Cmax [2, 5]: 6250 ng/mL
AUC(0-inf) [2, 6]: 63200 ng·h/mL
AUC(0-t) [2, 6]: 62500 ng·h/mL
Cmax [2, 6]: 10400 ng/mL

From patent publication US20080045547A1, “Salts And Co-Crystals of Pyrazolopyrimidine Compounds, Compositions Thereof And Methods For Their Production And Use” (priority 2006, published 2008)
